Measurements published in article PMC7381740 (Theranostics, 2020).
Entries after “also recorded” stand apart in the source; their conditions may differ. Like-named read-outs stand apart in the source and are kept apart here.

How the values were obtained:
σ1 receptor (S1R) = conditions: cited from earlier work
neurons (NeuN) = test: NeuN immunohistochemistry after intrastriatal AMPA; type: in vivo, rat
Experimental: Animals were maintained normothermic (body temperature: 37.0 ± 0.4 °C) during the surgery through the use of a heating blanket (Homeothermic Blanket Control Unit, Harvard Apparatus Limited®, Edenbridge, Kent, UK). Twenty-four hours later, the rats were anesthetized again as described above and scanned with a 3T cryogen-free MRS 3000 scanner with a quadrature, rat head coil (MR Solutions, Guildford, UK), [35] to assess oedema (i.e. lesion size and location) immediately before the PET scan. Parameters for the T2-weighted RARE sequence were: repetition time = 4800 ms, base echo time = 17 ms, effective echo time = 68 ms, number of echoes = 8, bandwidth = 20 kHz, number of samples = 256, number of views = 240, number of averages = 1 with 25 slices of 1.06 mm, giving a final voxel size of 0.136 × 0.136 × 1.06 mm.
Immunohistochemistry was also carried out in rats that received intrastriatal AMPA to visualise NeuN (neuronal marker). Animals were culled by isoflurane overdose confirmed by cervical dislocation. The brains were collected, snap frozen using isopentane on dry ice and stored at -80 °C. Coronal brain sections (20 µm thick) were taken using a cryostat (Leica CM3050s, Leica Biosystems Nussloch GmbH, Germany) and stored at -80 °C. Sections were allowed to defrost and dry at room temperature for 20min and then fixed with 4% paraformaldehyde for 10 min before being washed (6 × 5 min) in phosphate buffered saline (PBS) and incubated for 30 min in 2% normal donkey serum and 0.1% Triton X-100 in PBS to permeabilise and block non-specific binding. Primary antibody incubation was carried out overnight at 4 °C with rabbit anti-NeuN (Abcam, ab177487, 1:500). Following incubation in primary antibody, PBS washes were repeated (3 × 10min) and incubation with the secondary antibody (Alexa Fluor 594nm Donkey anti-rabbit IgG 1:500) was carried out. Images of the lesioned striatum were collected on an Olympus BX51 upright microscope using a 10×/0.30 UPlanFLN objectives and captured using a Retiga 6000 Color and R6 camera through QCapture Pro 7 and Ocular Software (QImaging Inc.). Specific band pass filter sets were used to prevent bleed through from one channel to the next. NeuN staining was quantified using ImageJ (1.52n) [51]-[53] using 5 snapshots for the caudate putamen, 3 snapshots for the globus pallidus and 2 snapshots for the substantia nigra for each side of the brain (ipsi- and contralateral). Both the total number of neurons averaged over the snapshots and the percentage of stained areas were measured.
For NeuN staining analysis and ^18F-IAM6067 autoradiography in the AMPA model, percentage stained area, cell counts and ^18F-IAM6067 were analysed using paired t-tests (ipsi- vs contralateral) for the caudate-putamen, globus pallidus and substantia nigra.

S1R [1] = biological target: S1R (Rattus norvegicus, UniProt Q9R0C9); test: PET pre-saturation (blocking) studies of ^18F-IAM6067 uptake; type: in vivo; conditions: blocker 1 mg/kg i.v. 20-30 min before scan
Chain of S1R (Rattus norvegicus, UniProt Q9R0C9) (Q9R0C9 whole entry): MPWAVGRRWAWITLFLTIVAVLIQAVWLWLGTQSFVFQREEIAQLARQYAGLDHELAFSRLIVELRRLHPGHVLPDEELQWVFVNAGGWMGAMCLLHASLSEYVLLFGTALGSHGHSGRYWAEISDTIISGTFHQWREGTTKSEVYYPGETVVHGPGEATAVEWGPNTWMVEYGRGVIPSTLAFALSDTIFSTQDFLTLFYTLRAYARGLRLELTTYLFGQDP
Experimental: PET data were expressed as SUV.
As the experiments with CM398 were performed later, scans without and with pre-treatment with CM398 were performed in the same animals and therefore were analysed using 2 way ANOVA with repeated measures for ROI and treatment. ANOVA were followed by a Sidak's post-hoc test.

sigma binding sites = system: sigma binding sites; set-up: method as in PMID 8221112; conditions: hippocampus of AD patients vs controls, autoradiography; cited from earlier work
S1R [2] = conditions: baboon pre-treated with haloperidol 1 mg/kg i.v.; cited from earlier work
[3] = globus pallidus, 24 h after intrastriatal AMPA 7.5 nmol, ipsi- vs contralateral

In the case of `FCC[C@H]1OC2(CCN(Cc3ccccc3)CC2)c2ccccc21` [(R)-^18F-fluspidine], the Ki (σ1 receptor (S1R); enantiomers) is given as 0.52 nM.
In the case of `Cc1onc(O)c1CC(N)C(=O)O` (stereo not drawn) [AMPA, α-amino-3-hydroxy-5-methyl-4-isoxazolepropionic acid], the “loss of neurons, NeuN % stained area” value (neurons (NeuN); caudate-putamen, 24 h after intrastriatal AMPA 7.5 nmol, ipsi- vs contralateral) is reported as -81 ± 3%, the “loss of neurons, NeuN % stained area” value (neurons (NeuN); [3]) is reported as -71 ± 8% and the “loss of neurons, NeuN cell number” value (neurons (NeuN); [3]) is reported as -56 ± 17%. For the same compound, the “loss of neurons in the striatum (NeuN immunostaining)” value (neurons (NeuN); striatum) was 70-80%.
With `CN(C)CCN(C)CCc1ccc(Cl)c(Cl)c1` [BD1047] the “decrease (blocking) of ^18F-IAM6067 uptake in all areas of the brain” value (S1R [1]) was 79-90% and the “effect of pre-saturation on ^18F-IAM6067 uptake vs baseline (in words)” value (shortened to “effect … vs baseline (in words)”) (S1R [1]) was “full blocking”.
With `COc1cc2c(cc1OC)CN(CCCCn1c(=O)n(C)c3ccccc31)CC2` [CM398] the “effect … vs baseline (in words)” value (S1R [1]) was “no significant blockade; also recorded: did not reveal any significant difference; also recorded: did not result in a significant reduction”.
With `Cn1ccc2cc3c(cc21)CCN3C(=O)Nc1cccnc1` [SB206553] the “effect … vs baseline (in words)” value (S1R [1]) was “no significant blockade; also recorded: did not reveal any significant difference; also recorded: no significant difference”.
For `Cc1ccccc1NC(=N)Nc1ccccc1C` [^3H-DTG], the decrease in binding (sigma binding sites) is listed as 26%.
For `COc1ccc(CCN2CCN(CCCc3ccccc3)CC2)cc1OC` [^11C-SA4503], the Ki (σ1 receptor (S1R)) is given as 4.4 nM.
For `O=c1sc2cc(CCCF)ccc2n1CCN1CCCCCC1` [^18F-FTC-146], the Ki (σ1 receptor (S1R)) is listed as 0.0025 nM.
In the case of `FCCC1OC2(CCN(Cc3ccccc3)CC2)c2ccccc21` (stereo not drawn) [^18F-fluspidine], the Ki (σ1 receptor (S1R)) is listed as 0.59 nM.
For `O=C(CCCN1CCC(O)(c2ccc(Cl)cc2)CC1)c1ccc(F)cc1` [haloperidol], the “displacement in specific receptor binding of ^18F-IAM6067 in all areas of the brain” value (S1R [2]) is given as 80%.
In the case of (S)-^18F-fluspidine, the Ki (σ1 receptor (S1R); enantiomers) is given as 2.3 nM.
